#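 Compound exposure: 48 hours, 5 concentrations, 96-well plates. TGI is the concentration that stops growth completely.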
# What was measured:
# Assay in all cases: NCI tumour cell line growth inhibition, 48 h
# SNB-75 CNS = system: SNB-75 CNS
# NCI-H23 lung = system: NCI-H23 lung
# RPMI-8226 leukemia = system: RPMI-8226 leukemia
# A498 renal = system: A498 renal
# NCI-H522 lung = system: NCI-H522 lung
# SK-OV-3 ovarian = system: SK-OV-3 ovarian
# TK-10 renal = system: TK-10 renal
# COLO 205 colon = system: COLO 205 colon
# M14 melanoma = system: M14 melanoma
# NCI/ADR-RES ovarian = system: NCI/ADR-RES ovarian
# U251 CNS = system: U251 CNS
# OVCAR-8 ovarian = system: OVCAR-8 ovarian
# SW-620 colon = system: SW-620 colon
# HOP-62 NSCLC = system: HOP-62 NSCLC
# SF-539 CNS = system: SF-539 CNS
# IGROV1 ovarian = system: IGROV1 ovarian
# CAKI-1 renal = system: CAKI-1 renal
# LOX IMVI melanoma = system: LOX IMVI melanoma
# NCI-H226 lung = system: NCI-H226 lung
# MDA-MB-435 = system: MDA-MB-435
# BT-549 breast = system: BT-549 breast
# HCT-116 colon = system: HCT-116 colon
# PC-3 prostate = system: PC-3 prostate
# A549 NSCLC = system: A549 NSCLC
# UACC-257 melanoma = system: UACC-257 melanoma
# NCI-H460 lung = system: NCI-H460 lung
# HS 578T breast = system: HS 578T breast
# SK-MEL-28 melanoma = system: SK-MEL-28 melanoma
# SF-295 CNS = system: SF-295 CNS
# MDA-N = system: MDA-N
# UO-31 renal = system: UO-31 renal
# SNB-19 CNS = system: SNB-19 CNS
# SF-268 CNS = system: SF-268 CNS
# RXF 393 renal = system: RXF 393 renal
# CCRF-CEM leukemia = system: CCRF-CEM leukemia
# OVCAR-4 ovarian = system: OVCAR-4 ovarian
# MALME-3M melanoma = system: MALME-3M melanoma
# HT29 colon = system: HT29 colon
# UACC-62 melanoma = system: UACC-62 melanoma
# HCT-15 colon = system: HCT-15 colon
# DU-145 prostate = system: DU-145 prostate
# T-47D breast = system: T-47D breast
# KM12 colon = system: KM12 colon
# HOP-92 NSCLC = system: HOP-92 NSCLC
# MCF7 breast = system: MCF7 breast
# MDA-MB-231 breast = system: MDA-MB-231 breast
# 786-0 renal = system: 786-0 renal
# K-562 leukemia = system: K-562 leukemia
# SK-MEL-2 melanoma = system: SK-MEL-2 melanoma
# SK-MEL-5 melanoma = system: SK-MEL-5 melanoma
# OVCAR-5 ovarian = system: OVCAR-5 ovarian
# HL-60(TB) leukemia = system: HL-60(TB) leukemia
# EKVX NSCLC = system: EKVX NSCLC
# SN12C renal = system: SN12C renal
# ACHN renal = system: ACHN renal
# SR leukemia = system: SR leukemia
# OVCAR-3 ovarian = system: OVCAR-3 ovarian
# MOLT-4 leukemia = system: MOLT-4 leukemia
# HCC-2998 colon = system: HCC-2998 colon
structure (smiles),measurement,setting,value
CC(C)=CC(=O)c1[nH]c2ccccc2c1CC(=O)NCCc1cn(C(c2ccccc2)(c2ccccc2)c2ccccc2)cn1,TGI,SNB-75 CNS,> 100 µM
same,TGI,NCI-H23 lung,> 36.2 µM
same,TGI,RPMI-8226 leukemia,5.23 µM
same,TGI,A498 renal,> 50.5 µM
same,TGI,NCI-H522 lung,19.8 µM
same,TGI,SK-OV-3 ovarian,> 100 µM
same,TGI,TK-10 renal,> 100 µM
same,TGI,COLO 205 colon,3.4 µM
same,TGI,M14 melanoma,4.8 µM
same,TGI,NCI/ADR-RES ovarian,10.8 µM
same,TGI,U251 CNS,9.17 µM
same,TGI,OVCAR-8 ovarian,> 100 µM
same,TGI,SW-620 colon,> 100 µM
same,TGI,HOP-62 NSCLC,> 100 µM
same,TGI,SF-539 CNS,5.21 µM
same,TGI,IGROV1 ovarian,> 45 µM
same,TGI,CAKI-1 renal,> 100 µM
same,TGI,LOX IMVI melanoma,4.46 µM
same,TGI,NCI-H226 lung,6.28 µM
same,TGI,MDA-MB-435,4.42 µM
same,TGI,BT-549 breast,11 µM
same,TGI,HCT-116 colon,10.6 µM
same,TGI,PC-3 prostate,6.75 µM
same,TGI,A549 NSCLC,> 27.4 µM
same,TGI,UACC-257 melanoma,> 67.4 µM
same,TGI,NCI-H460 lung,10.6 µM
same,TGI,HS 578T breast,> 56.5 µM
same,TGI,SK-MEL-28 melanoma,12.4 µM
same,TGI,SF-295 CNS,> 100 µM
same,TGI,MDA-N,9.75 µM
same,TGI,UO-31 renal,> 29.4 µM
same,TGI,SNB-19 CNS,> 30.4 µM
same,TGI,SF-268 CNS,> 53.3 µM
same,TGI,RXF 393 renal,13.5 µM
same,TGI,CCRF-CEM leukemia,> 24.3 µM
same,TGI,OVCAR-4 ovarian,> 58.7 µM
same,TGI,MALME-3M melanoma,12.5 µM
same,TGI,HT29 colon,> 42.7 µM
same,TGI,UACC-62 melanoma,4.72 µM
same,TGI,HCT-15 colon,> 40.4 µM
same,TGI,DU-145 prostate,> 100 µM
same,TGI,T-47D breast,> 100 µM
same,TGI,KM12 colon,14.2 µM
same,TGI,HOP-92 NSCLC,> 26.1 µM
same,TGI,MCF7 breast,> 100 µM
same,TGI,MDA-MB-231 breast,6.36 µM
same,TGI,786-0 renal,> 100 µM
same,TGI,K-562 leukemia,> 59.6 µM
same,TGI,SK-MEL-2 melanoma,3.54 µM
same,TGI,SK-MEL-5 melanoma,3.84 µM
same,TGI,OVCAR-5 ovarian,87.7 µM
same,TGI,HL-60(TB) leukemia,3.44 µM
same,TGI,EKVX NSCLC,> 100 µM
same,TGI,SN12C renal,> 23.9 µM
same,TGI,ACHN renal,> 100 µM
same,TGI,SR leukemia,4.88 µM
same,TGI,OVCAR-3 ovarian,> 100 µM
same,TGI,MOLT-4 leukemia,5.49 µM
same,TGI,HCC-2998 colon,3.78 µM
COc1ccc(C2/C(=C(\O)c3ccccc3)C(=O)C(O)(CC(=O)c3ccccc3)N2c2ccc(OC)cc2)cc1 (stereo not drawn),TGI,SNB-75 CNS,> 100 µM
same,TGI,NCI-H23 lung,> 100 µM
same,TGI,RPMI-8226 leukemia,14.8 µM
same,TGI,A498 renal,> 100 µM
same,TGI,NCI-H522 lung,20.5 µM
same,TGI,SK-OV-3 ovarian,99.3 µM
same,TGI,TK-10 renal,> 100 µM
same,TGI,COLO 205 colon,38.8 µM
same,TGI,M14 melanoma,99.6 µM
same,TGI,NCI/ADR-RES ovarian,54.7 µM
same,TGI,U251 CNS,> 64.3 µM
same,TGI,OVCAR-8 ovarian,> 100 µM
same,TGI,SW-620 colon,> 56.6 µM
same,TGI,HOP-62 NSCLC,> 100 µM
same,TGI,SF-539 CNS,59.3 µM
same,TGI,IGROV1 ovarian,> 77.7 µM
same,TGI,CAKI-1 renal,> 75.8 µM
same,TGI,LOX IMVI melanoma,39.2 µM
same,TGI,NCI-H226 lung,66.3 µM
same,TGI,MDA-MB-435,47.7 µM
same,TGI,BT-549 breast,> 56.8 µM
same,TGI,HCT-116 colon,39.8 µM
same,TGI,PC-3 prostate,> 81.6 µM
same,TGI,A549 NSCLC,> 100 µM
same,TGI,UACC-257 melanoma,31.9 µM
same,TGI,NCI-H460 lung,> 84.8 µM
same,TGI,HS 578T breast,> 100 µM
same,TGI,SK-MEL-28 melanoma,> 86.4 µM
same,TGI,SF-295 CNS,> 100 µM
same,TGI,MDA-N,82.5 µM
same,TGI,UO-31 renal,32.6 µM
same,TGI,SNB-19 CNS,> 100 µM
same,TGI,SF-268 CNS,> 100 µM
same,TGI,RXF 393 renal,> 85.1 µM
same,TGI,CCRF-CEM leukemia,14.5 µM
same,TGI,OVCAR-4 ovarian,> 100 µM
same,TGI,MALME-3M melanoma,75.7 µM
same,TGI,HT29 colon,> 100 µM
same,TGI,UACC-62 melanoma,> 100 µM
same,TGI,HCT-15 colon,37.2 µM
same,TGI,DU-145 prostate,> 100 µM
same,TGI,T-47D breast,98 µM
same,TGI,KM12 colon,36.9 µM
same,TGI,HOP-92 NSCLC,32.5 µM
same,TGI,MCF7 breast,> 88.5 µM
same,TGI,MDA-MB-231 breast,50.9 µM
same,TGI,786-0 renal,46.7 µM
same,TGI,K-562 leukemia,58.8 µM
same,TGI,SK-MEL-2 melanoma,41.4 µM
same,TGI,SK-MEL-5 melanoma,29.2 µM
same,TGI,OVCAR-5 ovarian,> 100 µM
same,TGI,HL-60(TB) leukemia,28.7 µM
same,TGI,EKVX NSCLC,> 100 µM
same,TGI,SN12C renal,85.5 µM
same,TGI,ACHN renal,68.8 µM
same,TGI,SR leukemia,14.3 µM
same,TGI,OVCAR-3 ovarian,26.2 µM
same,TGI,MOLT-4 leukemia,54 µM
same,TGI,HCC-2998 colon,> 47.7 µM

# Source: PubChem BioAssay (NCI)
